In one series the test system is HCT116 cells. Nature of the series: Cell proliferation assay (CellTiter-Glo), HCT116. The settings on record: Homo sapiens, 120 h, HCT-116, 5 days incubation. In kind it is cell-based. On the procedure:
(§1) SW48 cells were plated at a density of 1,500 cells/well, and LoVo, HCT116, and SW620 cells were plated at a density of 800 cells/well in a 96-well cell culture plate, and cultured in a 37°C incubator overnight. The test compounds, which were gradient-diluted with DMSO, were added, and after incubation for 5 days, cell viability was detected using a CellTiter-Glo kit. The CellTiter-Glo reagent was equilibrated to room temperature, and an appropriate amount was added to the cell plate, followed by shaking at room temperature for 12 min. The luminescence signal was detected using a microplate reader.
(§2) The luminescence signal values of the DMSO-treated wells and cell-free wells were used as negative and positive controls, respectively, to calculate the inhibition rate of compound on cell proliferation. The concentration-inhibition curve was fitted using the "log(inhibitor) vs. normalized response -- Variable slope" equation in GraphPad Prism 8 software to obtain the IC50. [formula]
(Cellular ATP, detected with luciferase, serves as a proxy for viable cell number.)

The test system of a further series is LoVo. Nature of the series: Cell proliferation assay (CellTiter-Glo), LoVo. The settings on record: Homo sapiens, 120 h, 5 days incubation. The class given is cell-based. On the procedure:
as §1, §2

Series [1] in a line: Pharmacokinetic test in mice. The class given is in vivo. As to conditions: mouse; CD-1 mice, male, oral gavage, 10 mg/kg, plasma. On the procedure:
CD-1 mice were taken as test animals. Example 4, Example 22, and Comparative Example HRO761 were given by gavage. The drug concentrations in mouse plasma at different time points were determined by LC-MS/MS to investigate the pharmacokinetic characteristics of the compounds of the present disclosure in mice.
• Experimental drugs: Example 4, Example 22, and Comparative Example HRO761; • Animals: CD-1 mice, male, 24-25 g, purchased from Shanghai Jihui Laboratory Animal Care Co.,Ltd.
An appropriate amount of Example 4, Example 22, and Comparative Example HRO761 was weighed and sequentially added to an appropriate amount of dimethyl sulfoxide, solutol, and saline (final solvent: 5% DMSO + 10% solutol + 85% saline). The mixture was vortexed and sonicated to prepare a 1.0 mg/mL dosing solution.
Three mice in gavage groups of Example 4, Example 22, and Comparative Example HRO761 were administered by oral gavage after overnight fasting (dose: 10 mg/kg, administration volume: 10 mL/kg), and the mice were fed 4 h after administration.
0.04 mL of blood was collected from the animals before administration and at 0.083 h, 0.25 h, 0.5 h, 1 h, 2 h, 4 h, 6 h, 8 h, and 24 h after administration, and anticoagulated with sodium heparin. Blood samples were placed on ice after collection, and plasma was separated by centrifugation (centrifugation conditions: 8000 rpm, 5 min). The collected plasma was stored at -80°C before analysis.
LC-MS/MS was used to determine the content of the test compound in mouse plasma after intragastric administration.
Based on the calculated concentrations of the compounds in plasma at different time points, the pharmacokinetic parameters of Example 4, Example 22, and Comparative Example HRO761 in mice were calculated using winnonlin software. The pharmacokinetic parameters of Example 4, Example 22, and Comparative Example HRO761 of the present disclosure are shown in Table 13.

For two compounds, IC50, AUC(0-inf) and Cmax results are on record in patent EP4692088A1, “COMPOUND ACTING AS WRN HELICASE INHIBITOR” (SHANGHAI JEYOU PHARMACEUTICAL CO., LTD., priority 2023, dated 2024).

Structures are written as SMILES.

One may read the IC50 as the concentration that inhibits the measured activity by half. The term AUC(0-inf) denotes the area under the concentration-time curve extrapolated to infinity. One may read the Cmax as the highest concentration seen after dosing. For `CCc1c(N2CCN(C(=O)c3ncnc(C)c3O)CC2)c(=O)c2nn(C3=CCOCC3)nc2n1CC(=O)Nc1ccc(C(F)(F)F)cc1Cl` [Example 4], in the series on HCT116 cells, inhibition was half-maximal at 48 nM (IC50). Also, the midpoint of inhibition in the series on LoVo, the IC50, lay at 105 nM. In series [1], this compound displayed an AUC(0-inf) of 51500 ng·h/mL and a Cmax of 24800 ng/mL.
Take `CCc1c(N2CCN(C(=O)c3ncnc(C)c3O)CC2)c(=O)c2nn(C3=CCOCC3)nc2n1CC(=O)Nc1cc(F)c(Cl)cc1Cl` [Example 22]: in series [1], the AUC(0-inf) turned out to be 83400 ng·h/mL and the Cmax came to 24600 ng/mL.
